Test results as given in ChEMBL document CHEMBL3576778, “Structure-Activity Relationship Studies of a Series of Semisynthetic Lipopeptides Leading to the Discovery of Surotomycin, a Novel Cyclic Lipopeptide Being Developed for the Treatment of Clostridium difficile-Associated Diarrhea” (J Med Chem, 2015).
≈ marks a conversion by molar mass, not a printed value.

Experiments:
Assay type in all cases: functional
Clostridioides difficile [1] = test: Antimicrobial activity against daptomycin-resistant Clostridium difficile NAP1 incubated anaerobically at 37 degC for 48 hrs by agar dilution method; details: NAP1, 48 h
Staphylococcus aureus [2] = test: Antimicrobial activity against daptomycin-susceptible Staphylococcus aureus ATCC 29213 incubated anaerobically at 37 degC for 48 hrs by agar dilution method; details: ATCC 29213, 48 h
Enterococcus faecium = test: Antimicrobial activity against daptomycin-resistant Enterococcus faecium ATCC 6569 incubated anaerobically at 37 degC for 48 hrs by agar dilution method; details: ATCC 6569, 48 h
Enterococcus faecalis = test: Antimicrobial activity against daptomycin-resistant Enterococcus faecalis ATCC 49452 incubated anaerobically at 37 degC for 48 hrs by agar dilution method; details: ATCC 49452, 48 h
Clostridioides difficile [3] = test: Antimicrobial activity against daptomycin-resistant Clostridium difficile ATCC 43596 infected in Syrian golden hamster model of Clostridium difficile-associated diarrhea assessed as protection against microbial infection by measuring survival at day 25 to 26 at 0.5 mg/kg treated once daily for 5 consecutive days starting 4 hrs after spore inoculation
Staphylococcus aureus [4] = test: Antimicrobial activity against daptomycin-non-susceptible Staphylococcus aureus 42 incubated anaerobically at 37 degC for 48 hrs by agar dilution method; details: Staphylococcus aureus, 42, 48 h
Staphylococcus aureus [5] = test: Antimicrobial activity against daptomycin-non-susceptible Staphylococcus aureus 278 incubated anaerobically at 37 degC for 48 hrs by agar dilution method; details: Staphylococcus aureus, 278, 48 h
Staphylococcus aureus [6] = test: Antimicrobial activity against daptomycin-non-susceptible Staphylococcus aureus 1145 incubated anaerobically at 37 degC for 48 hrs by agar dilution method; details: Staphylococcus aureus, 1145, 48 h
Staphylococcus aureus [7] = test: Antimicrobial activity against daptomycin-non-susceptible Staphylococcus aureus 1146 incubated anaerobically at 37 degC for 48 hrs by agar dilution method; details: Staphylococcus aureus, 1146, 48 h
Staphylococcus aureus [8] = test: Antimicrobial activity against daptomycin-non-susceptible Staphylococcus aureus 1179 incubated anaerobically at 37 degC for 48 hrs by agar dilution method; details: Staphylococcus aureus, 1179, 48 h
Staphylococcus aureus [9] = test: Antimicrobial activity against daptomycin-non-susceptible Staphylococcus aureus 1326 incubated anaerobically at 37 degC for 48 hrs by agar dilution method; details: Staphylococcus aureus, 1326, 48 h
Staphylococcus aureus [10] = test: Antimicrobial activity against daptomycin-non-susceptible Staphylococcus aureus 1616 incubated anaerobically at 37 degC for 48 hrs by agar dilution method; details: Staphylococcus aureus, 1616, 48 h
Staphylococcus aureus [11] = test: Antimicrobial activity against daptomycin-non-susceptible Staphylococcus aureus 5003 incubated anaerobically at 37 degC for 48 hrs by agar dilution method; details: Staphylococcus aureus, 5003, 48 h
Staphylococcus aureus [12] = test: Antimicrobial activity against daptomycin-non-susceptible Staphylococcus aureus 5004 incubated anaerobically at 37 degC for 48 hrs by agar dilution method; details: Staphylococcus aureus, 5004, 48 h
Staphylococcus aureus [13] = test: Antimicrobial activity against daptomycin-non-susceptible Staphylococcus aureus 5005 incubated anaerobically at 37 degC for 48 hrs by agar dilution method; details: Staphylococcus aureus, 5005, 48 h
Staphylococcus aureus [14] = test: Antimicrobial activity against daptomycin-non-susceptible Staphylococcus aureus 5006 incubated anaerobically at 37 degC for 48 hrs by agar dilution method; details: Staphylococcus aureus, 5006, 48 h
Staphylococcus aureus [15] = test: Antimicrobial activity against daptomycin-non-susceptible Staphylococcus aureus 5008 incubated anaerobically at 37 degC for 48 hrs by agar dilution method; details: Staphylococcus aureus, 5008, 48 h
Staphylococcus aureus [16] = test: Antimicrobial activity against daptomycin-non-susceptible Staphylococcus aureus 5010 incubated anaerobically at 37 degC for 48 hrs by agar dilution method; details: Staphylococcus aureus, 5010, 48 h
Staphylococcus aureus [17] = test: Antimicrobial activity against daptomycin-non-susceptible Staphylococcus aureus 5012 incubated anaerobically at 37 degC for 48 hrs by agar dilution method; details: Staphylococcus aureus, 5012, 48 h
Staphylococcus aureus [18] = test: Antimicrobial activity against daptomycin-non-susceptible Staphylococcus aureus 5014 incubated anaerobically at 37 degC for 48 hrs by agar dilution method; details: Staphylococcus aureus, 5014, 48 h
Staphylococcus aureus [19] = test: Antimicrobial activity against daptomycin-non-susceptible Staphylococcus aureus 5016 incubated anaerobically at 37 degC for 48 hrs by agar dilution method; details: Staphylococcus aureus, 5016, 48 h
Staphylococcus aureus [20] = test: Antimicrobial activity against daptomycin-non-susceptible Staphylococcus aureus 5017 incubated anaerobically at 37 degC for 48 hrs by agar dilution method; details: Staphylococcus aureus, 5017, 48 h
Staphylococcus aureus [21] = test: Antimicrobial activity against daptomycin-non-susceptible Staphylococcus aureus 5030 incubated anaerobically at 37 degC for 48 hrs by agar dilution method; details: Staphylococcus aureus, 5030, 48 h
Staphylococcus aureus [22] = test: Antimicrobial activity against daptomycin-non-susceptible Staphylococcus aureus 5033 incubated anaerobically at 37 degC for 48 hrs by agar dilution method; details: Staphylococcus aureus, 5033, 48 h
Staphylococcus aureus [23] = test: Antimicrobial activity against daptomycin-non-susceptible Staphylococcus aureus 5034 incubated anaerobically at 37 degC for 48 hrs by agar dilution method; details: Staphylococcus aureus, 5034, 48 h
Staphylococcus aureus [24] = test: Antimicrobial activity against daptomycin-non-susceptible Staphylococcus aureus 5059 incubated anaerobically at 37 degC for 48 hrs by agar dilution method; details: Staphylococcus aureus, 5059, 48 h
Staphylococcus aureus [25] = test: Antimicrobial activity against daptomycin-non-susceptible Staphylococcus aureus 5060 incubated anaerobically at 37 degC for 48 hrs by agar dilution method; details: Staphylococcus aureus, 5060, 48 h
Staphylococcus aureus [26] = test: Antimicrobial activity against daptomycin-non-susceptible Staphylococcus aureus 5063 incubated anaerobically at 37 degC for 48 hrs by agar dilution method; details: Staphylococcus aureus, 5063, 48 h
Staphylococcus aureus [27] = test: Antimicrobial activity against daptomycin-non-susceptible Staphylococcus aureus 5076 incubated anaerobically at 37 degC for 48 hrs by agar dilution method; details: Staphylococcus aureus, 5076, 48 h
Staphylococcus aureus [28] = test: Antimicrobial activity against daptomycin-non-susceptible Staphylococcus aureus 5080 incubated anaerobically at 37 degC for 48 hrs by agar dilution method; details: Staphylococcus aureus, 5080, 48 h
Staphylococcus aureus [29] = test: Antimicrobial activity against daptomycin-non-susceptible Staphylococcus aureus 5081 incubated anaerobically at 37 degC for 48 hrs by agar dilution method; details: Staphylococcus aureus, 5081, 48 h
Staphylococcus aureus [30] = test: Antimicrobial activity against daptomycin-non-susceptible Staphylococcus aureus 5091 incubated anaerobically at 37 degC for 48 hrs by agar dilution method; details: Staphylococcus aureus, 5091, 48 h

`C[C@H]1NC(=O)C(CC(=O)O)NC(=O)[C@H](CCCN)NC(=O)CNC(=O)[C@@H](NC(=O)[C@H](CC(=O)O)NC(=O)[C@H](CC(N)=O)NC(=O)[C@H](Cc2c[nH]c3ccccc23)NC(=O)CCCCCCc2ccccc2)[C@@H](C)OC(=O)[C@H](CC(=O)c2ccccc2N)NC(=O)[C@H]([C@@H](C)CC(=O)O)NC(=O)[C@@H](CO)NC(=O)CNC(=O)[C@H](CC(=O)O)NC1=O` (single isomer, unassigned) showed an MIC (Clostridioides difficile [1]) of 8 µg/mL (≈ 4.83 µM), an MIC (Staphylococcus aureus [2]) of 16 µg/mL (≈ 9.67 µM) and an MIC (Enterococcus faecium) greater than 32 µg/mL. The MIC (Enterococcus faecalis) was greater than 32 µg/mL.

In the case of `C[C@H]1NC(=O)[C@@H](CC(=O)O)NC(=O)[C@H](CCCN)NC(=O)CNC(=O)[C@@H](NC(=O)[C@H](CC(=O)O)NC(=O)[C@H](CC(N)=O)NC(=O)[C@H](Cc2c[nH]c3ccccc23)NC(=O)C2CCCCCCCCCCC2)[C@@H](C)OC(=O)[C@H](CC(=O)c2ccccc2N)NC(=O)[C@H]([C@@H](C)CC(=O)O)NC(=O)[C@@H](CO)NC(=O)CNC(=O)[C@H](CC(=O)O)NC1=O`, the MIC (Clostridioides difficile [1]) was 4 µg/mL (≈ 2.41 µM), the MIC (Staphylococcus aureus [2]) was 1 µg/mL (≈ 0.602 µM) and the MIC (Enterococcus faecium) was 32 µg/mL (≈ 19.3 µM). The MIC (Enterococcus faecalis) was greater than 32 µg/mL.

For `CCCCCOc1ccc(/C=C/C(=O)N[C@@H](Cc2c[nH]c3ccccc23)C(=O)N[C@@H](CC(N)=O)C(=O)N[C@@H](CC(=O)O)C(=O)N[C@@H]2C(=O)NCC(=O)N[C@@H](CCCN)C(=O)NC(CC(=O)O)C(=O)N[C@H](C)C(=O)N[C@@H](CC(=O)O)C(=O)NCC(=O)N[C@H](CO)C(=O)N[C@@H]([C@@H](C)CC(=O)O)C(=O)N[C@@H](CC(=O)c3ccccc3N)C(=O)O[C@@H]2C)cc1` (single isomer, unassigned), the MIC (Clostridioides difficile [1]) was 4 µg/mL (≈ 2.38 µM), the MIC (Staphylococcus aureus [2]) was 4 µg/mL (≈ 2.38 µM) and the MIC (Enterococcus faecium) was greater than 32 µg/mL. It also gave an MIC (Enterococcus faecalis) greater than 32 µg/mL.

`CCCCCCCCc1ccc(C(=O)N[C@@H](Cc2c[nH]c3ccccc23)C(=O)N[C@@H](CC(N)=O)C(=O)N[C@@H](CC(=O)O)C(=O)N[C@@H]2C(=O)NCC(=O)N[C@@H](CCCN)C(=O)N[C@H](CC(=O)O)C(=O)N[C@H](C)C(=O)N[C@@H](CC(=O)O)C(=O)NCC(=O)N[C@H](CO)C(=O)N[C@@H]([C@@H](C)CC(=O)O)C(=O)N[C@@H](CC(=O)c3ccccc3N)C(=O)O[C@@H]2C)cc1` showed an MIC (Clostridioides difficile [1]) of 1 µg/mL (≈ 0.594 µM), an MIC (Staphylococcus aureus [2]) of 0.5 µg/mL (≈ 0.297 µM) and an MIC (Enterococcus faecium) of 4 µg/mL (≈ 2.38 µM). The MIC (Enterococcus faecalis) was 8 µg/mL (≈ 4.75 µM) and the survival at 0.5 mg/kg (Clostridioides difficile [3]) was 20%.

In the case of `CC(C)CCCCCCCCCC(=O)N[C@@H](Cc1c[nH]c2ccccc12)C(=O)N[C@@H](CC(N)=O)C(=O)N[C@@H](CC(=O)O)C(=O)N[C@@H]1C(=O)NCC(=O)N[C@@H](CCCN)C(=O)NC(CC(=O)O)C(=O)N[C@H](C)C(=O)N[C@@H](CC(=O)O)C(=O)NCC(=O)N[C@H](CO)C(=O)N[C@@H]([C@@H](C)CC(=O)O)C(=O)N[C@@H](CC(=O)c2ccccc2N)C(=O)O[C@@H]1C` (single isomer, unassigned), the MIC (Clostridioides difficile [1]) was 1 µg/mL (≈ 0.601 µM), the MIC (Staphylococcus aureus [2]) was 0.25 µg/mL (≈ 0.15 µM) and the MIC (Enterococcus faecium) was 4 µg/mL (≈ 2.41 µM). The MIC (Enterococcus faecalis) was greater than 32 µg/mL.

`CCCCCCCCCC(=O)N[C@@H](Cc1c[nH]c2ccccc12)C(=O)N[C@H](CC(N)=O)C(=O)N[C@@H](CC(=O)O)C(=O)N[C@@H]1C(=O)NCC(=O)N[C@@H](CCCN)C(=O)N[C@@H](CC(=O)O)C(=O)N[C@H](C)C(=O)N[C@@H](CC(=O)O)C(=O)NCC(=O)N[C@H](CO)C(=O)N[C@@H]([C@H](C)CC(=O)O)C(=O)N[C@@H](CC(=O)c2ccccc2N)C(=O)O[C@@H]1C` was tested, and the MIC (Clostridioides difficile [1]) was 2 µg/mL (≈ 1.23 µM), the MIC (Staphylococcus aureus [2]) was 0.5 µg/mL (≈ 0.309 µM) and the MIC (Enterococcus faecium) was greater than 32 µg/mL. The MIC (Enterococcus faecalis) was greater than 32 µg/mL, the MIC (Staphylococcus aureus [4]) was 0.5 µg/mL (≈ 0.309 µM) and the MIC (Staphylococcus aureus [5]) was 16 µg/mL (≈ 9.87 µM). It also gave an MIC (Staphylococcus aureus [6]) of 1 µg/mL (≈ 0.617 µM), an MIC (Staphylococcus aureus [7]) of 1 µg/mL (≈ 0.617 µM) and an MIC (Staphylococcus aureus [8]) of 2 µg/mL (≈ 1.23 µM). For the same molecule, the MIC (Staphylococcus aureus [9]) was 4 µg/mL (≈ 2.47 µM), the MIC (Staphylococcus aureus [10]) was 16 µg/mL (≈ 9.87 µM) and the MIC (Staphylococcus aureus [11]) was 2 µg/mL (≈ 1.23 µM). It also gave an MIC (Staphylococcus aureus [12]) of 1 µg/mL (≈ 0.617 µM), an MIC (Staphylococcus aureus [13]) of 4 µg/mL (≈ 2.47 µM) and an MIC (Staphylococcus aureus [14]) of 2 µg/mL (≈ 1.23 µM). The MIC (Staphylococcus aureus [15]) was 2 µg/mL (≈ 1.23 µM), the MIC (Staphylococcus aureus [16]) was 0.5 µg/mL (≈ 0.309 µM) and the MIC (Staphylococcus aureus [17]) was 2 µg/mL (≈ 1.23 µM). The MIC (Staphylococcus aureus [18]) was 0.5 µg/mL (≈ 0.309 µM), the MIC (Staphylococcus aureus [19]) was 4 µg/mL (≈ 2.47 µM) and the MIC (Staphylococcus aureus [20]) was 4 µg/mL (≈ 2.47 µM). For the same molecule, the MIC (Staphylococcus aureus [21]) was 8 µg/mL (≈ 4.94 µM), the MIC (Staphylococcus aureus [22]) was 1 µg/mL (≈ 0.617 µM) and the MIC (Staphylococcus aureus [23]) was 2 µg/mL (≈ 1.23 µM). For the same molecule, the MIC (Staphylococcus aureus [24]) was 4 µg/mL (≈ 2.47 µM), the MIC (Staphylococcus aureus [25]) was 4 µg/mL (≈ 2.47 µM) and the MIC (Staphylococcus aureus [26]) was 8 µg/mL (≈ 4.94 µM). It also gave an MIC (Staphylococcus aureus [27]) of 2 µg/mL (≈ 1.23 µM), an MIC (Staphylococcus aureus [28]) of 4 µg/mL (≈ 2.47 µM) and an MIC (Staphylococcus aureus [29]) of 4 µg/mL (≈ 2.47 µM). It also gave an MIC (Staphylococcus aureus [30]) of 2 µg/mL (≈ 1.23 µM).
